Experimental data taken from US20110217241A1, “CONJUGATES OF 19F MR IMAGING TRACERS FOR USE IN MULTI-CHROMIC MRI IMAGING” (University of Maryland, Baltimore, priority 2008, published 2011).

Experiments:
[1] = 19F resonance frequency (chemical shift) with different metal ions; type: physicochemical; conditions: FIG. 6
Excerpt: In FIG. 6, the darker bars indicate paramagnetic ion complexes and the lighter bars indicate diamagnetic complexes. As shown in the graph of FIG. 6, the different metal ions led to different ^19F resonance frequencies, ranging from δ(^19FIT-Bi^3+)=−71.17 ppm to δ(^19FIT-Tb^3+)=−63.32 ppm. In each case, there was a single ^19F signal.

[2] = 19F relaxation times (T1, T2) under different solution conditions; type: physicochemical; conditions: for Relaxation Times T1 / Relaxation Times T2 / T1 percentage relative to T1 under Condition 1 / T2 percentage relative to T2 under Condition 1: pH 7, 50 mM; for Relaxation Times T1 / Relaxation Times T2 / pH dependency of 19F relaxation times T1 and T2: 11.7 Tesla; for pH dependency of 19F relaxation times T1 and T2: pH 6, 7 & 8
Procedure: The ^19F T1 and T2 were determined under different solution conditions for the paramagnetic ^19FIT-Gd^3+ and for the diamagnetic ^19FIT-Y^3+ from the above example (and shown in FIG. 6). The conditions and results are summarized below in Table 1. The percentage numbers for Conditions 2-5 were calculated relative to T1 or T2 under Condition 1. […] For example, the weakly paramagnetic O2 had little effect on the ^19F T1 and T2 of ^19FIT-Gd^3+.
19F T1 and T2 were also determined for ^19FIT-Gd^3+ and ^19FIT-Y^3+ at different pH values (pH 6 7 & 8). […] The NMR field strength for the testing was 11.7 Tesla.

[3] = Condition 1: PBS buffer saturated with N2, 25° C.
[4] = Condition 2: PBS buffer saturated with O2, 25° C.
[5] = Condition 3: PBS buffer saturated with N2, 45° C.
[6] = Condition 4: Human sera with 10% D2O saturated with N2, 25° C.
[7] = Condition 5: 10% w/v bovine serum albumin in PBS buffer saturated with N2, 25° C.

Structure (SMILES)	19F resonance frequency δ [1] [ppm]	Relaxation Times T1 [2, 3] [ms]	Relaxation Times T2 [2, 3] [ms]	T1 percentage relative to T1 under Condition 1 [2, 4]	T2 percentage relative to T2 under Condition 1 [2, 4]	Relaxation Times T1 [2, 4] [ms]	Relaxation Times T2 [2, 4] [ms]	T1 percentage relative to T1 under Condition 1 [2, 5]	T2 percentage relative to T2 under Condition 1 [2, 5]	Relaxation Times T1 [2, 5] [ms]	Relaxation Times T2 [2, 5] [ms]	T1 percentage relative to T1 under Condition 1 [2, 6]	T2 percentage relative to T2 under Condition 1 [2, 6]	Relaxation Times T1 [2, 6] [ms]	Relaxation Times T2 [2, 6] [ms]	T1 percentage relative to T1 under Condition 1 [2, 7]	T2 percentage relative to T2 under Condition 1 [2, 7]	Relaxation Times T1 [2, 7] [ms]	Relaxation Times T2 [2, 7] [ms]	pH dependency of 19F relaxation times T1 and T2 [2]	other results
O=C([O-])CN1CCN(CC(=O)[O-])CCN(CC(=O)NCCOCCOCCOCCOC(C(F)(F)F)(C(F)(F)F)C(F)(F)F)CCN(CC(=O)[O-])CC1.[Tb+3] [^19FIT-Tb^3+]	−63.32	–	–	–	–	–	–	–	–	–	–	–	–	–	–	–	–	–	–	–	–
O=C([O-])CN1CCN(CC(=O)[O-])CCN(CC(=O)NCCOCCOCCOCCOC(C(F)(F)F)(C(F)(F)F)C(F)(F)F)CCN(CC(=O)[O-])CC1.[Y+3] [^19FIT-Y^3+]	–	1498	1057	(−28.3%)	(−37.1%)	1074	665	(42.4%)	(43.0%)	2133	1511	(−19.2%)	(−79.8%)	1211	214	(−19.9%)	(−86.8%)	1200	139	neither complex showed significant pH dependency	–
O=C([O-])CN1CCN(CC(=O)[O-])CCN(CC(=O)NCCOCCOCCOCCOC(C(F)(F)F)(C(F)(F)F)C(F)(F)F)CCN(CC(=O)[O-])CC1.[Gd+3] [^19FIT-Gd^3+]	–	4.24	1.66	(−0.7%)	(−6.0%)	4.27	1.56	(−6.4%)	(−26.5%)	3.97	1.22	(−0.7%)	(−48.2%)	4.27	0.86	(6.6%)	(−66.9%)	4.52	0.55	neither complex showed significant pH dependency	effect of weakly paramagnetic O2 on 19F T1 and T2 ([2]; Condition 2 vs Condition 1): little effect
O=C([O-])CN1CCN(CC(=O)[O-])CCN(CC(=O)NCCOCCOCCOCCOC(C(F)(F)F)(C(F)(F)F)C(F)(F)F)CCN(CC(=O)[O-])CC1.[Bi+3] [^19FIT-Bi^3+]	−71.17	–	–	–	–	–	–	–	–	–	–	–	–	–	–	–	–	–	–	–	–
